Patent US8859583B2, “Bicyclic heterocyclic compounds as protein tyrosine kinase inhibitors” (Astex Therapeutics Limited, priority 2007, dated 2014)
Counter-ions that a name gives are not always drawn.

Tests used:
[1] = tested on: LP-1 cell line (DSMZ no.: ACC 41) derived from human multiple myeloma; experiment: Cell-based pERK ELISA in LP-1 cells; conditions: LP-1, FGF-1/Heparin stimulated, for the 1 μM bound: or at least 50% inhibition at a concentration of 1 μM
Method: Enzyme buffer A: 8 mM MOPS, pH 7.0, 0.2 mM EDTA, 10 mM MgAcetate Enzyme buffer B: 8 mM MOPS, pH 7.0, 0.2 mM EDTA, 2.5 mM MnCl2, 10 mM MgAcetate Enzyme buffer C: 8 mM Mops, pH 7.0, 0.2 mM EDTA, 10 mM MnCl2, 10 mM MgAcetate. Cell-Based pERK ELISA Method
LP-1 or JIM-1 multiple myeloma cells were seeded in 96 well plates at 1×10^6 cells/ml in 200 ul per well in serum free media. HUVEC cells were seeded at 2.5×10^5 cells/ml and allowed to recover for 24 h prior to transfer to serum free media. Cells were incubated for 16 h at 37° C. prior to the addition of a test compound for 30 minutes. Test compounds were administered at a 0.1% final DMSO concentration. Following this 30 minute incubation a FGF-1/Heparin (FGF-1 at 100 ng/ml final and Heparin at 100 ug/ml) mixture or VEGF^165 (100 ug/ml) was added to each of the wells for a further 5 minutes. The media was removed and 50 ul ERK ELISA lysis buffer (R and D Systems DuoSet ELISA for pERK and Total ERK #DYC-1940E, DYC-1018E) added. ELISA plates and standards were prepared according to the standard DuoSet protocols and the relative amounts of pERK to total ERK in each sample calculated according to the standard curve.
In particular, compounds of the invention were tested against the LP-1 cell line (DSMZ no.: ACC 41) derived from human multiple myeloma.

[2] = tested on: Ba/F3-TEL-FGFR3 cell line; experiment: Ba/F3-TEL-FGFR3 cell proliferation assay; assay type: cell-based; conditions: 72 hours, Alamar Blue; read-out: IC50 against Ba/F3-TEL-FGFR3 cell line
Method: Ba/F3-TEL-FGFR3 & Ba/F3 (WT) Cell Proliferation Assays
Stably transfected Ba/F3-TEL-FGFR3 cells were plated out into black 96-well tissue culture plates with clear bottoms in RPMI medium containing 10% FBS and 0.25 mg/ml G418 at a density of 5×10^3 cells/well (200 μl per well). The parental wild-type Ba/F3 cells (DSMZ no.: ACC 300) were plated out into black 96-well tissue culture plates with clear bottoms in RPMI medium containing 10% FBS and 2 ng/ml mouse IL-3 (R&D Systems) at a density of 2.5×10^3 cells/well (200 μl per well). Plates were placed in an incubator overnight before adding the compounds the following day. Dilutions of compounds were made in DMSO starting at 10 mM and were diluted into the wells to give a final DMSO concentration of 0.1% in assay. Compounds were left on the cells for 72 hours before the plates were removed from the incubator and 20 μl of Alamar Blue™ (Biosource) was added to each well. Plates were placed in the incubator for 4-6 hours before reading plates at 535 nm (excitation)/590 nm (emission) on a Fusion plate reader (Packard).
In particular, compounds of the invention were tested against the Ba/F3-TEL-FGFR3 cell line.

melting point | IC50 [1] | SMILES | further results
– | < 20 µM | O=C(NCC(F)(F)F)Nc1cccc(-c2cnc3cc(C(=O)N4CCC(O)C4)ccn23)c1 (stereo not shown) [Example 7, 1-{3-[7-(3-Hydroxy-pyrrolidine-1-carbonyl)-imidazo[1,2-a]pyridin-3-yl]-phenyl}-3-(2,2,2-trifluoro-ethyl)-urea] | –
– | < 20 µM | CNC(=O)c1ccn2c(-c3cccc(NC(=O)NCC(F)(F)F)c3)cnc2c1 [Example 2, 3-[3-[3-(2,2,2-Trifluoroethyl)ureido]-phenyl}imidazo[1,2-a]pyridine-7-carboxylic acid methylamide] | –

The next lines start with the molecule.

SMILES | melting point | IC50 [1] | further results
O=C(NCC(F)(F)F)Nc1cccc(-c2cnc3cc(C(=O)NCCCc4cnc[nH]4)ccn23)c1 [Example 19, 3-{3-[2,2,2-Trifluoro-ethyl)-ureido]-imidazo[1,2-a]pyridine-7-[3-(1H-imidazol-4-yl)]-propanamide] | 170 °C | – | –
Cn1cncc1NC(=O)c1ccn2c(-c3cccc(NC(=O)NCC(F)(F)F)c3)cnc2c1 [Example 18, 3-{3-[2,2,2-Trifluoro-ethyl)-ureido]-imidazo[1,2-a]pyridine-7-[5-(1-N-methyl-imidazole)]-amide] | 260 °C | – | –
CC(CO)NC(=O)c1ccn2c(-c3cccc(NC(=O)NCC(F)(F)F)c3)cnc2c1 (stereo not shown) [Example 17, 3-{3-[3-(2,2,2-Trifluoro-ethyl)-ureido]-phenyl}-imidazo[1,2-a]pyridine-7-carboxylic acid (2-hydroxy-1-methyl-ethyl)-amide] | – | < 20 µM | –
Cn1cncc1CNC(=O)c1ccn2c(-c3cccc(NC(=O)NCC(F)(F)F)c3)cnc2c1 [Example 20, 3-{3-[2,2,2-Trifluoro-ethyl)-ureido]-imidazo[1,2-a]pyridine-7-[5-(1-N-methyl-imidazole)]-methylamide] | > 260 °C | – | –
CN(C)C(=O)c1ccn2c(-c3cccc(NC(=O)NCC(F)(F)F)c3)cnc2c1 [Example 1, 3-[3-[3-(2,2,2-Trifluoroethyl)ureido]-phenyl}imidazo[1,2-a]pyridine-7-carboxylic acid dimethylamide Hydrochloride] | – | – | IC50 [2]: < 20 µM
